Data taken from paper PMC9022229, “Induction of Paraptosis by Cyclometalated Iridium Complex-Peptide Hybrids and CGP37157 via a Mitochondrial Ca^2+ Overload Triggered by Membrane Fusion between Mitochondria and the Endoplasmic Reticulum” (Biochemistry, 2022).
Residues, ends and D or L forms follow the SMILES beside them. *: point of attachment. X1 = O=C(COc1ccc(-c2ccccn2)cc1)NCCCCCCCCN*

Tests used:
Type in all cases: cell-based
[1] = tested on: mitofusin 2 (MFN2); assay: Western blot analysis of MFN2 in Jurkat cells
Protocol: In a 1.5 mL Eppendorf tube, Jurkat cells (1.0 × 10^6 cells) were incubated in the presence of 4 ([…]), CGP37157 (100 μM for 0–24 h or 0–100 μM for 12 h), and celastrol (0–10 μM for 24 h or 1 μM for 0–24 h) at 37 °C under 5% CO2. After the cells had been washed twice with PBS, the proteins were extracted by using RIPA buffer (Nacalai Tesque) and quantified using a Pierce BCA Protein Assay Kit (Thermo Scientific). Proteins (7.5 μg/well) for MFNs and DRP1 and proteins (5.0 μg/well) for GAPDH were used for sodium dodecyl sulfate–polyacrylamide gel electrophoresis (SDS–PAGE) (7.5% for MFNs and DRP1 and 10% for GAPDH) (Bio-Rad). After SDS–PAGE, the proteins were transferred to a polyvinylidene fluoride membrane (Merck Millipore) by using a semi dry blotter (Bio-Rad). The membrane was blocked with Blocking One solution (Nacalai Tesque) for 30 min at room temperature. After being blocked, the membrane was washed three times with 1× TBST and treated with primary antibodies overnight (at a dilution of 1/1000 for MFNs and DRP1 or 1/2000 for GAPDH) in a signal enhancer HIKARI-solution A (Nacalai Tesque). The membrane was washed three times with 1× TBST and treated with the anti-mouse or anti-rabbit IgG HRP-conjugated secondary antibody (at a dilution of 1/4000 for MFNs and DRP1 or 1/10000 for GAPDH) in 1× TBST for 60 min at room temperature. The protein signal was spotted with a Chemi-Lumi One Ultra solution (Nacalai Tesque) using the ChemiDoc MP system (Bio-Rad). […]

[2] = tested on: dynamin-related protein 1 (DRP1); assay: Western blot analysis of DRP1 in Jurkat cells
Protocol: In a 1.5 mL Eppendorf tube, Jurkat cells (1.0 × 10^6 cells) were incubated in the presence of 4 ([…]), CGP37157 (100 μM for 0–24 h or 0–100 μM for 12 h), and celastrol (0–10 μM for 24 h or 1 μM for 0–24 h) at 37 °C under 5% CO2. After the cells had been washed twice with PBS, the proteins were extracted by using RIPA buffer (Nacalai Tesque) and quantified using a Pierce BCA Protein Assay Kit (Thermo Scientific). Proteins (7.5 μg/well) for MFNs and DRP1 and proteins (5.0 μg/well) for GAPDH were used for sodium dodecyl sulfate–polyacrylamide gel electrophoresis (SDS–PAGE) (7.5% for MFNs and DRP1 and 10% for GAPDH) (Bio-Rad). After SDS–PAGE, the proteins were transferred to a polyvinylidene fluoride membrane (Merck Millipore) by using a semi dry blotter (Bio-Rad). The membrane was blocked with Blocking One solution (Nacalai Tesque) for 30 min at room temperature. After being blocked, the membrane was washed three times with 1× TBST and treated with primary antibodies overnight (at a dilution of 1/1000 for MFNs and DRP1 or 1/2000 for GAPDH) in a signal enhancer HIKARI-solution A (Nacalai Tesque). The membrane was washed three times with 1× TBST and treated with the anti-mouse or anti-rabbit IgG HRP-conjugated secondary antibody (at a dilution of 1/4000 for MFNs and DRP1 or 1/10000 for GAPDH) in 1× TBST for 60 min at room temperature. The protein signal was spotted with a Chemi-Lumi One Ultra solution (Nacalai Tesque) using the ChemiDoc MP system (Bio-Rad).

[3] = tested on: MFN1- and/or MFN2-KD Jurkat cells; assay: MTT assay of MFN1- and/or MFN2-KD Jurkat cells; details: siRNA 10 nM, three independent experiments
Protocol: The roles of MFNs in the cell death induced by 4 and CGP37157 were examined by using small interfering RNA (siRNA) for MFN1 and MFN2 to knock down (KD) these proteins. […] The cytotoxicity of 4 and CGP37157 against MFN1- and/or MFN2-KD Jurkat cells was evaluated by MTT assays. […] The effect of a negative control siRNA (NCsiRNA) on the expression levels of MFNs and the cell viability of Jurkat cells was negligible, implying that MFNs are […] to the paraptosis induced by 4 and CGP37157. It should be noted that the treatment with siRNA at 5 nM for 72 h was toxic against Jurkat cells in the presence of 4 and CGP37157, although the efficiency of knockdown of these proteins by siRNA could be improved by increasing the incubation time, as shown in Figure S11.
To a solution of transfection reagent (INTERFERin, 5 μL) in OPTI-MEM (0.3 mL) in a 1.5 mL Eppendorf tube was added siRNA (10 μM, 1 or 2 μL) in H2O, and the resulting solution was allowed to stand for 15 min at room temperature. The resulting solution was then added to Jurkat cells (2.0 × 10^5 cells/mL, 1.5 mL) in 10% FBS/RPMI 1640 medium that had been seeded on a 12-well plate and incubated overnight at 37 °C under 5% CO2 (the final concentration of siRNA was 5 or 10 nM), and the resulting solution was incubated for 48 or 72 h at 37 °C under 5% CO2. The cells were collected by centrifugation (2000 rpm, 3 min, 4 °C), and the expression levels of MFNs were evaluated by Western blot analysis as described above. The cytotoxicity of 4 (3 or 5 μM), CGP37157 (50 or 100 μM), and celastrol (1 μM) against MFNs-KD Jurkat cells was evaluated by MTT assays as described above.

[4] = Figure S8B, CGP37157 10 µM, 12 h
[5] = Figure S8B, CGP37157 20 µM, 12 h
[6] = Figure S8B, CGP37157 50 µM, 12 h
[7] = Figure S8B, CGP37157 80 µM, 12 h
[8] = Figure S8B, CGP37157 100 µM, 12 h
[9] = Figure S8A, 4 at 1 µM, 1 h per legend
[10] = Figure S8A, 4 at 2.5 µM, 1 h per legend
[11] = Figure S8A, 4 at 5 µM, 1 h per legend
[12] = Figure S8A, 4 at 10 µM, 1 h per legend
[13] = Figure S8A, 4 at 20 µM, 1 h per legend

## O=C1CSC(c2ccccc2Cl)c2cc(Cl)ccc2N1 (centres unmarked) [CGP37157]
[1]; CGP37157 100 μM, 1–6 h
  Expression level of MFN2 (Figure 11B): weakly changed
[1]; [4]
  MFN2 band intensity relative to absence of compound: 1.1
[1]; [5]
  MFN2 band intensity relative to absence of compound: 1.6
[1]; [6]
  MFN2 band intensity relative to absence of compound: 1.4
[1]; [7]
  MFN2 band intensity relative to absence of compound: 1.2
[1]; [8]
  MFN2 band intensity relative to absence of compound: 0.95
[2]; CGP37157 100 μM, 1–6 h
  Expression level of DRP1 (Figure 11B): somewhat upregulated
[2]; [4]
  DRP1 band intensity relative to absence of compound: 1.6
[2]; [5]
  DRP1 band intensity relative to absence of compound: 1.7
[2]; [6]
  DRP1 band intensity relative to absence of compound: 1.3
[2]; [7]
  DRP1 band intensity relative to absence of compound: 1.4
[2]; [8]
  DRP1 band intensity relative to absence of compound: 0.89
[3]; CGP37157 50 or 100 µM, 12 h
  Effect of knockdown of MFNs on cell death induced by the compound: weakly inhibited

## NCCCC[C@H](NC(=O)[C@H](CCCCN)NC(=O)[C@@H](N)CCCCN)C(=O)NCC(=O)NCC(=O)NCCCCCCCCNC(=O)COc1ccc(-c2ccccn2)cc1 [compound 4] (H-KKKGG-X1)
[1]; 4 at 5 μM, 30 min to 1 h
  Expression level of MFN2 (Figure 11A): weakly changed
[1]; [9]
  MFN2 band intensity relative to absence of compound: 1.3
[1]; [10]
  MFN2 band intensity relative to absence of compound: 1.3
[1]; [11]
  MFN2 band intensity relative to absence of compound: 1.4
[1]; [12]
  MFN2 band intensity relative to absence of compound: 1.4
[1]; [13]
  MFN2 band intensity relative to absence of compound: 1.3
[2]; 4 at 5 μM, 30 min to 1 h
  Expression level of DRP1 (Figure 11A): somewhat upregulated
[2]; [9]
  DRP1 band intensity relative to absence of compound: 2.0
[2]; [10]
  DRP1 band intensity relative to absence of compound: 2.5
[2]; [11]
  DRP1 band intensity relative to absence of compound: 2.6
[2]; [12]
  DRP1 band intensity relative to absence of compound: 2.6
[2]; [13]
  DRP1 band intensity relative to absence of compound: 1.0
[3]; 4 at 3 or 5 µM, 1 h
  Effect of knockdown of MFNs on cell death induced by the compound: weakly inhibited
